From article PMC8259862, “Latency, thermal stability, and identification of an inhibitory compound of mirolysin, a secretory protease of the human periodontopathogen Tannerella forsythia” (Journal of Enzyme Inhibition and Medicinal Chemistry, 2021)
Several values for one entry are separate records, joined by “and”; a condition that tells them apart may be missing. Identical values can stand only once.

How the values were obtained:
[1] = biological target: Arg-specific gingipains, Rgp; parameters: method as in PMID 15361547; conditions: cited from earlier work
[2] = biological target: Lys-specific gingipain, Kgp; parameters: method as in PMID 15361547; conditions: cited from earlier work
[3] = test system: mirolase; test: Screening of compound specificity: mirolase; assay type: biochemical, Tannerella forsythia; conditions: 100 nM protease, 100 M excess of compound, Azocoll
Procedure: (§1) The residual proteolytic activity was determined employing Azocoll (12 mg/ml) or, for gingipains only, FTC-casein (50 µg/ml), as described above.

[4] = biological target: T1, mirolysin (Tannerella forsythia, UniProt A0A0F7IPS1); test: Screening of compound specificity: mirolysin; assay type: biochemical; conditions: read-out: decrease in mirolysin activity
Procedure: as §1

[5] = biological target: T2, karilysin (Tannerella forsythia, UniProt D0EM77); test: Screening of compound specificity: karilysin; assay type: biochemical; conditions: 100 nM protease, 100 M excess of compound, Azocoll
T2 construct: made in house
Procedure: as §1

[6] = biological target: T1, mirolysin; test: Determination of inhibition constant (Ki) and mode of inhibition (FTC-casein); assay type: biochemical; conditions: for mode of inhibition: Lineweaver-Burk plot
Procedure: After 15 min of incubation at 37 °C, 100 µl fluorogenic protein substrate FTC-casein was added at different concentrations (5–120 µg/ml), and the residual proteolytic activity was recorded. The mode of inhibition of target proteases by the compounds was determined graphically using the Lineweaver–Burk plot using Equation (2): (2) 1/V=Km/Vmax×1/[S]+1/Vmax where V is the reaction velocity, Vmax is the maximum V, Km is the Michaelis–Menten constant, and [S] is the substrate concentration. The Ki was determined using a macro for competitive inhibition from GraphPad Prism software (La Jolla, CA, USA) and Equation (3): (3) V=Vmax×[S]/Kmobs+[S]; Kmobs=Km×(1+[I]/Ki) where Kmobs is the Michaelis–Menten constant in the presence of inhibitor, and [I] is the inhibitor concentration.

[7] = biological target: T1, mirolysin; test: Determination of KD by microscale thermophoresis; assay type: binding
Procedure: The Monolith NT.115 instrument (NanoTemper) was used to analyse binding interactions between mirolysin and compounds 9, 10, and 21. Lysine residues of mirolysin were fluorescently labelled with the Monolith NT Protein Labelling Kit RED-NHS-Red dye (NanoTemper), strictly according to the manufacturer’s instruction (a 7 M excess of dye was used). Compounds at concentrations ranging from 1.5 to 25 000 nM were incubated for 5 min at 20 °C with 20 nM mirolysin. Experiments were performed in 0.1 M Tris, 0.15 M NaCl, 5 mM CaCl2, 0.05% Pluronic-F127, 0.02% NaN3, pH 7.5. Samples were loaded into Monolith NT.115 Standard Treated glass capillaries (NanoTemper), and an initial fluorescence measurement followed by a thermophoresis measurement was carried out using 80% LED power and high microscale thermophoresis (MST) power. KD values were calculated using MO. Affinity Analysis software (NanoTemper). Each experiment was performed in triplicate.

[8] = biological target: T3, bovine trypsin (Bos taurus, UniProt P00760); test: Screening of compound specificity: trypsin; assay type: biochemical; conditions: 100 nM protease, 100 M excess of compound, Azocoll
T3 construct: purchased Merck Sigma-Aldrich
T3 sequence (P00760 24-246): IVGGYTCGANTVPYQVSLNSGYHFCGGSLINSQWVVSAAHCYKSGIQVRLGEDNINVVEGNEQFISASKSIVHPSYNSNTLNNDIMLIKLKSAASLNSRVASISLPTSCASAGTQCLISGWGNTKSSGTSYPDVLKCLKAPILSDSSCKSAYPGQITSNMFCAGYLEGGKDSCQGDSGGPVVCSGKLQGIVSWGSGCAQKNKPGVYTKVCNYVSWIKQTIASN
Procedure: as §1

[9] = biological target: T4, human plasmin (Homo sapiens, UniProt P00747); test: Screening of compound specificity: plasmin; assay type: biochemical; conditions: 100 nM protease, 100 M excess of compound, Azocoll
T4 construct: purchased Merck Sigma-Aldrich
Procedure: as §1

[10] = biological target: T1, mirolysin; test: Screening round II: inhibitory activity of the 21 fragments against mirolysin (FTC-casein); assay type: biochemical; conditions: molar ratio 50:1 (compound:enzyme), read-out: reduction of mirolysin activity (screening round II)
Procedure: (§2) Mirolysin activity was routinely determined in assay buffer (50 mM Tris, 150 mM NaCl, 5 mM CaCl2, 0.02% NaN3, pH 7.5) supplemented with 0.05% Pluronic F-127, employing Azocoll or FTC-caseins as a substrate. Briefly, an Azocoll suspension was added to the sample in Eppendorf tubes and vigorously shaken for 15 min–2 h at 37 °C. Undigested Azocoll was removed by centrifugation (16,100 × g, 5 min, 4 °C), and the absorbance at 410 nm was measured using a Sunrise absorbance microplate reader (Tecan, Männedorf, Switzerland). In the case of FTC-casein, analysed samples were transferred into wells of a black microtiter plate (Nunc, Roskilde, Denmark), and then the FTC-casein solution was added. Proteolytic activity was recorded as an increase in fluorescence (excitation/emission = 485/538 nm) over time using a SpectraMax Gemini EM reader (Molecular Devices, San Jose, CA, USA).
Mirolysin (40 nM) was mixed with each of the 21 compounds (2 µM) (Supplementary Table 1) in assay buffer (50 mM Tris, 150 mM NaCl, 5 mM CaCl2, 0.02% NaN3, 0.05% Pluronic F-127, pH 7.5) in a 96-well plate (total volume, 100 µl). After 15 min at 37 °C, 100 µl of the substrate solution FTC-casein (100 µg/ml) was added, and substrate hydrolysis was monitored. The percentage of inhibition was determined relative to the sample containing the enzyme without any compound added (control sample). […]

[11] = test system: promirolysin (proM^wt); test: Effect of compounds on promirolysin autoprocessing (activation in cis); assay type: biochemical, Tannerella forsythia
Procedure: ProM^wt (70 µM) was activated at 37 °C in 5 mM Tris, 50 mM NaCl, 0.02% NaN3, pH 8.0, alone or in the presence of a […] excess of different compounds. At specific time points, aliquots were withdrawn and analysed by SDS–PAGE (10% gels; 4 µl sample, preincubated with 1:1 (vol:vol) of 20 mM 1,10-phenanthroline for 5 min at room temperature), and measured in a proteolytic activity assay, employing FTC-casein (25 µg/ml) as a substrate.

[12] = biological target: T5, Kgp (Porphyromonas gingivalis, UniProt B2RLK2); test: Screening of compound specificity: Kgp; assay type: biochemical; conditions: 100 nM protease, 100 M excess of compound, FTC-casein
T5 construct: made in house
Procedure: as §1

[13] = biological target: T1, mirolysin; test: 2D NMR titration of 15N-labelled mirolysin (KD); assay type: binding; conditions: KD by NMR titration, estimated from peaks in fast exchange, 298 K
Procedure: The custom-selected Maybridge diversity library of 1500 fragments was screened using the saturation transfer difference (STD) ligand-based approach, with fragments pooled into cocktails of five fragments each. STD spectra were recorded at a concentration of 10 µM mirolysin, with the final concentration of each fragment in the sample at 1 mM. D6-DMSO was used for the lock signal. STD experiments used alternating on- and off-resonance saturation (2s saturation, Gaussian pulse, +0.6 ppm, −5 ppm, 128 scans) with water suppression using a double-pulsed-field gradient spin-echo (DPFGSE) watergate W5 double-echo sequence[32]^,[33]. Spectra were compared with a reference containing d6-DMSO only. […] Hits identified using STD–NMR, based on the intensity ratio of ligand signals between the STD experiment and a 1D reference spectrum, were validated using ^1H,^15N heteronuclear single quantum coherence (HSQC) experiments with water flip back and watergate water suppression[34]^,[35], with spectra assessed for chemical shift perturbations (CSPs) relative to a control containing d6-DMSO. […] Spectra were recorded with 40 scans, and a ^1H spectral width of 9615.4 Hz and a ^15N spectral width of 2128.9 Hz, with 2048 and 256 complex points, respectively. All experiments were recorded at 298 K using a Bruker Avance 600 MHz spectrometer (^1H frequency, 600 MHz) equipped with a 5 mm QCI cryoprobe.

[14] = test system: forsilysin; test: Screening of compound specificity: forsilysin; assay type: biochemical, Tannerella forsythia; conditions: 100 nM protease, 100 M excess of compound, Azocoll
Procedure: as §1

[15] = biological target: T6, RgpB (Porphyromonas gingivalis, UniProt P95493); test: Screening of compound specificity: RgpB; assay type: biochemical; conditions: 100 nM protease, 100 M excess of compound, FTC-casein
T6 construct: His; made in house
Procedure: as §1

[16] = biological target: T1, mirolysin; test: Dose-dependent inhibition of mirolysin (Azocoll); assay type: biochemical
Procedure: as §2
Mirolysin (0.1 µM) was incubated with increasing concentrations of compounds (0–100 µM) in 50 µl assay buffer (50 mM Tris, 0.15 M NaCl, 5 mM CaCl2, 0.02% NaN3, pH 7.5) for 15 min at 37 °C, before 200 µl Azocoll suspension (15 mg/ml in assay buffer) was added.

[17] = biological target: T7, human thrombin (Homo sapiens, UniProt P00734); test: Screening of compound specificity: thrombin; assay type: biochemical; conditions: 100 nM protease, 100 M excess of compound, Azocoll
T7 construct: purchased Merck Sigma-Aldrich
Procedure: as §1

[18] = […] excess of compound, FTC-casein

T1 sequence (A0A0F7IPS1 entry or part of it): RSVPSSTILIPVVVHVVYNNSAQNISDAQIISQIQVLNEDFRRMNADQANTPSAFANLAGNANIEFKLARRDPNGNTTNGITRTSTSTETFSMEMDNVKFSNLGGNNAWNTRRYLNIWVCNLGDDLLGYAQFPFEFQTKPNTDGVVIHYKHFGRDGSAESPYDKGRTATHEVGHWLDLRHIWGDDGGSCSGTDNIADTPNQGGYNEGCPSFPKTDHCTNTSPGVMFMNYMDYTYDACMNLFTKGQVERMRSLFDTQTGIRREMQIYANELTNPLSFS
T2 sequence (D0EM77 35-472): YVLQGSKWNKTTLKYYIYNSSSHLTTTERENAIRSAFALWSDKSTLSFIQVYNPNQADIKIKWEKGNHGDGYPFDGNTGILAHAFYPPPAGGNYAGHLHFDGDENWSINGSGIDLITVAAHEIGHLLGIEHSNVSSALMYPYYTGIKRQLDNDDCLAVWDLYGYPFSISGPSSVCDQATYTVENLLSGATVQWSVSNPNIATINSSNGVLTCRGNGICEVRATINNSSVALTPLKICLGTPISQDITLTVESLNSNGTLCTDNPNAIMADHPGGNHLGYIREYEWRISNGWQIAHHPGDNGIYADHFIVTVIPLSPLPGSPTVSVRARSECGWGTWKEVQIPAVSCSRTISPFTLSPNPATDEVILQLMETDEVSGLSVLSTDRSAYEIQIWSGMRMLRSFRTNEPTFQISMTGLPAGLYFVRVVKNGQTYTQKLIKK
T4 sequence (P00747 581-810 limits assumed): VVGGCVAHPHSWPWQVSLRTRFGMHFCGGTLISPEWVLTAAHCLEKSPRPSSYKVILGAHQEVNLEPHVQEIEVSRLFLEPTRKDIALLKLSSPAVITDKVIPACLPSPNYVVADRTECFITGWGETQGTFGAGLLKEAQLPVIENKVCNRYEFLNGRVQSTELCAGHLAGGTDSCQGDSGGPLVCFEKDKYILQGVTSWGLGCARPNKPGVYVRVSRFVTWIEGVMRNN
T4 sequence (P00747 97-580 partner limits assumed): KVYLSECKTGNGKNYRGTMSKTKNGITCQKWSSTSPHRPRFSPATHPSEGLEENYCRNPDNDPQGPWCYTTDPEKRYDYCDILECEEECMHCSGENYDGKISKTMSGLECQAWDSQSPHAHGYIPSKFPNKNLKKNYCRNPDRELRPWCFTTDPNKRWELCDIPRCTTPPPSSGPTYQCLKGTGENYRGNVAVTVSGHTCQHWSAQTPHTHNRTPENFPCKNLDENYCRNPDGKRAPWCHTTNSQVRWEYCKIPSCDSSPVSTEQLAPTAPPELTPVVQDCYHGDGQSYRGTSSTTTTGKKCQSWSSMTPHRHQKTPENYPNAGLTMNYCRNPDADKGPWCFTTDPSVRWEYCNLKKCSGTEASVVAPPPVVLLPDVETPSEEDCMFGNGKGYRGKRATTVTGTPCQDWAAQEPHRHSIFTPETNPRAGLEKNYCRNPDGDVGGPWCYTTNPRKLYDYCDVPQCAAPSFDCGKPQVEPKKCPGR
T6 sequence (P95493 230-736): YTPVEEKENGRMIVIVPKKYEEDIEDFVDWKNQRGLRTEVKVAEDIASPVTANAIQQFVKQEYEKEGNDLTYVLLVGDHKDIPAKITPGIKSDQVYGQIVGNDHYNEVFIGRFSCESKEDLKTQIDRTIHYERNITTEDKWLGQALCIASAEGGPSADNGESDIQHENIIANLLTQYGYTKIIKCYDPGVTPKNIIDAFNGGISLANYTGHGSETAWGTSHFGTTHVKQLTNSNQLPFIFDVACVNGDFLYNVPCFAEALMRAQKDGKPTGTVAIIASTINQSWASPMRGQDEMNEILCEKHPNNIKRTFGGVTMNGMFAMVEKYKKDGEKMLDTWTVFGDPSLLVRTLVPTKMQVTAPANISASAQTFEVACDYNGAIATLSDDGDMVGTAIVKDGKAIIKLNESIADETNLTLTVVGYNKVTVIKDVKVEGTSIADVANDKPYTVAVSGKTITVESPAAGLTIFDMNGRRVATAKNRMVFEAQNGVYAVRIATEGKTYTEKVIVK

Compound: CN(C)C(=O)[C@H](CCCCN)NC(=O)C(=O)[C@H](CCCN=C(N)N)NC(=O)[C@H](CCCCN)NC(=O)OCc1ccccc1 [Kyt-1]
- Ki [1]: 0.00013 µM

Compound: CN(NC(=O)CC[C@H](NC(=O)OCc1ccccc1)C(=O)N[C@@H](CCCCN)C(=O)C(=O)NCc1ccccc1)c1ccccc1 [Kyt-36]
- Ki [2]: 0.075 nM

Compound: NCc1cccc2nsnc12 [cpd 9]
- effect on mirolase activity [3]: almost completely unaffected
- effect on mirolase activity ([3]; listed as Cpd 9): did not affect
- inhibition at 10 µM [4]: 50%
- effect on karilysin activity [5]: almost completely unaffected
- effect on karilysin activity ([5]; listed as Cpd 9): did not affect
- Ki [6]: 3.2 µM
- mode of inhibition [6]: reversible competitive inhibitors
- Kd [7]: 1.1 µM
- effect on trypsin activity [8]: almost completely unaffected
- effect on trypsin activity ([8]; listed as Cpd 9): did not affect
- effect on plasmin activity [9]: almost completely unaffected
- effect on plasmin activity ([9]; listed as Cpd 9): did not affect
- inhibition at 2 µM [10]: 10 to 20%
- effect on proteolytic activity in aliquots during proM^wt activation [11, 18]: significantly decreased
- reduction of mirolysin activity after 216 h of proM^wt activation [11, 18]: 30%
- effect on proM^wt maturation (35 kDa zymogen to 31 kDa form, SDS-PAGE) ([11]; proM^wt 70 µM, 50 M excess of compound, 37 °C, 216 h): significantly slowed
- time to complete proM^wt maturation ([11]; proM^wt 70 µM, 50 M excess of compound, 37 °C, SDS-PAGE): > 216 h
- effect on Kgp activity [12]: almost completely unaffected
- effect on Kgp activity ([12]; listed as Cpd 9): did not affect
- Kd [13]: 72.2 µM and 72 µM
- effect on forsilysin activity [14]: almost completely unaffected
- effect on forsilysin activity ([14]; listed as Cpd 9): did not affect
- effect on RgpB activity [15]: almost completely unaffected
- effect on RgpB activity ([15]; listed as Cpd 9): did not affect
- IC50 [16]: 2.3 µM
- effect on thrombin activity [17]: almost completely unaffected
- effect on thrombin activity ([17]; listed as Cpd 9): did not affect

Compound: NCc1cccc(-c2ccco2)c1 [cpd 10]
- effect on mirolase activity [3]: almost completely unaffected
- inhibition at 10 µM [4]: 20%
- effect on karilysin activity [5]: almost completely unaffected
- Ki [6]: 22 µM
- mode of inhibition [6]: reversible competitive inhibitors
- Kd [7]: 9.7 µM
- effect on trypsin activity [8]: almost completely unaffected
- effect on plasmin activity [9]: almost completely unaffected
- inhibition at 2 µM [10]: 10 to 20%
- effect on Kgp activity [12]: almost completely unaffected
- Kd [13]: 278 µM
- effect on forsilysin activity [14]: almost completely unaffected
- effect on RgpB activity [15]: almost completely unaffected
- IC50 [16]: 6.6 µM
- effect on thrombin activity [17]: almost completely unaffected
